Experimental data taken from patent US11191293B2, “Nutritional composition and infant formula for promoting myelination of the brain” (NESTEC S.A., priority 2015, dated 2021).

How the values were obtained:
[1] = tested on: neural progenitor cell (NPCs); experiment: Neurosphere counts in 96-well plates; format: cell-based, mouse; conditions: cells grown for 2 days
Procedure: Generation of neural progenitor cell (NPCs) libraries:
dissociation of E14 mouse neocortex
E14 pup brains were harvested and placed in ice cold DPBS(1X)+10% Pen/Strep, then they were dissected using a dissecting microscope. From each pup, one brain hemisphere was placed in 2 ml of Neurobasal media/10% P/S/10X Hepes and another brain hemisphere was placed in another tube.
The tissue from each tube was aseptically and manually dissociate into single cells, neurobasal complete medium was added and centrifuged at 130G for 5 min. The tissue was then re-suspended in neurobasal complete media with GF and placed in a corning suspension culture dish 100 mm×20 mm (#430591). Cells were passage twice using a 1:3 ratio, after what they were centrifuged (130 g 5 min), resuspended in freezing media (10% DMSO and neurobasal complete media, no GF) and frozen in liquid nitrogen (LN2).
Corning Costar 3474, 96 well plate, Ultra low attachment
3-4 mLs of cells were taken out of the tilted plate and add to a 15 ml conical. Some of the remaining media was used to rinse down the plate. All remaining media was drawn up and put into a 15 ml conical tube, and Spun at 130 G for 5 min. All media was removed. The cells were gently resuspended in 5 mls of warm PBS, spun again. PBS was then removed and the cells were then gently resuspended in 500 μl of Accutase(Corning™ Accutase™ Cell Detachment Solution, #25058Cl). The cells were then Pipetted gently with a 1000 μl tip to break up pellet, and then they were placed in a shaking water bath for 5-10 minutes, after which time they were swirled by hand frequently.
Control and compound media was made with #2 media and contain 29 uM Choline, low (5 uM) and medium (70 uM) choline media was made with #3 media.
Clumps were no bigger than ˜3-5 cells. 5-10 mls of warm media (GF) was added to dilute enzyme. 2 mls of media was added. […]
in AB staining solution for five min. Imaging was carried out using a GE Cytell imager or LSM 710, Zeiss confocal microscope and the diameters of neurospheres with ImageJ software (National Institutes of Health) was analysed.

[2] = tested on: brain myelination (myelin water fraction); experiment: Cross-sectional correlation of infant formula nutrient content with brain myelination (mcDESPOT MRI myelin water fraction); format: in vivo, human; conditions: formula-fed children up to 5 years of age; brain regions named per nutrient
Procedure: MRI (Magnetic Resonance Imaging): MRI brain scans of infants and children between 0 and 5 years were acquired using a white matter imaging technique. This technique provides a quantitative measure, the Myelin Water Fraction (MWF), which is a surrogate marker of myelin content in the brain. When mapped as a function of time across early childhood, myelination trajectories can be generated.
Infant formula composition: six infant formulas fed to infants participating in a study were analyzed for their composition/level of myelin-relevant nutrients.
Infants included in this study were drawn from a larger longitudinal study of normal brain and behavioral development: the Brown University Assessment of Myelination and Behavior Across Maturation (BAMBAM). To focus on neurotypical development, children with known potential risk factors for learning, neurologic, or psychiatric disorders were specifically excluded during recruitment and enrollment. Thus, children with in utero alcohol or illicit substance exposure, premature (<37 weeks gestation) or multiple birth, fetal ultrasound abnormalities, complicated pregnancy (e.g., preeclampsia), APGAR scores <8, NICU admission, neurological disorder (e.g., head injury, epilepsy), psychiatric or developmental disorders in the infant, parents or siblings (including maternal depression requiring medication) were excluded. Ongoing screenings, such as the MCAT for autism, or CBCL for behavioral problems, were further used to remove enrolled children with clinically concerning behaviors or overt medical conditions (such as autism spectrum disorders).
A combination of retrospective and prospective data were acquired from parents via detailed medical histories and parental interview on the type of infant formula used, percentage of breastfeeding to formula feeding, and length of exclusive breastfeeding. This information was updated at each study visit, which occurred approximately every 6 months for children under 2 years, and yearly for older children. Using this information, children were categorized into one of 2 groups: #1. Exclusively formula-fed; and #2. Exclusively breastfed for at least 90 days (3 months). Children who were fed a combination of breastmilk and formula within 3 months were excluded from our analysis. Infants within the exclusively formula-fed group were further sub-divided based on parental reports of the main infant formula used throughout the first 3 months. Main formula was defined as that given 90% of the time or more (in the case were parents used an alternate brand during vacation, for example).
Using these criteria, 94 exclusively formula-fed infants and young children were selected into group #1. These included 13 children who received formula #2; 28 who received formula #5; 8 who received formula #3; 39 who received formula #4; 5 who received formula #1 and 1 who received formula #6. A sample of 52 exclusively breast-fed infants were also selected and matched to the over formula-fed group with regards to mean age, gestation duration, birth weight, male:female ratio, ethnicity ratio, maternal education, family size, and number of languages spoken in the home (in addition to English).
Each infant was scanned using the mcDESPOT (multicomponent Driven Equilibrium Single Pulse Observation of T1 and T2) white matter imaging technique Deoni et al. (Magn. Reson. Med. 2008, 60:1372-1387), which provides a quantitative measure of the myelin water fraction (MWF)—a measure of myelin content—at each point throughout the brain. All infants were scanned during natural (i.e. non-sedated) sleep using acoustically-muffled mcDESPOT imaging protocols. Total imaging times ranged from 19 minutes for the youngest toddlers to 24 minutes for the older 4 year-old children.

[3] = tested on: neural progenitor cell (NPCs); experiment: Monolayer culture NPC proliferation assay; format: cell-based, mouse; conditions: 3 days culture
Procedure: 24 well glass bottom plates (Mat Tek P24G-1.0-13-F Case, glass bottom 24 well plates) were coated with poly-L-ornithin (Sigma P4957) and Fibronection (Sigma F1141) before use in the assay below.
Cells were plated (10,000 cells per well) in Complete media with GF for 24 hours (500 ul per well). Once cells had been attached they were switched to choline deficient media, other compound media, or appropriate media.
After 24 h, it was ensured that cells had attached to the plate then the medium was carefully removed. 500 μL of compound media plus GF.was added. The cells were cultured for 3 days in appropriate media.
Control and compound media was made with #2 media and contains 29 uM Choline, Low (5 uM) and medium (70 uM) choline media was made with #3 media.
EDU incorporation was measured using Click-iT® EdU Alexa Fluor® 555 Imaging Kit (Life technologies, #c10338).
At the end of day 3 EdU was added to each well at 10 μM for 30 minutes prior to fixation. For fixation and subsequent immunohistochemical analysis, the medium was removed, the cells were rinsed once with 1X PBS for 5 min, and fixed with 4% PFA in 1X PBS for 15 min at 4° C., then the cells were washed twice with 1X PBS for 5 min, left in 1X PBS, wrapped in foil and leave overnight at 4° C., or staining was proceeded with.
PBS was removed and enough AB staining solution (1% Goat
serum, 1xPBS, and 0.1% triton X) added to cover the bottom, the blockwas kept at room temp for 1 hour. The cells were stained for EDU. The cells were Incubated for 30 min at room temp, in the dark. The cells were washed with 1X PBS and stained with Dapi 1:5000 ul for 15 min. The cells were washed once with 1X PBS, then left in PBS at 4° C., or Imaged immediately using a GE Cytell imager (cell viability
application), or LSM 710, Zeiss confocal microscope (with ImageJ software (National Institutes of Health) analysis).

With Sphingomyelin the “number of neurospheres, Average (Mean)” value ([1]; Sphingomyelin High (Dose 3, 1 μm)) was 219, the “number of neurospheres, Average (Mean)” value ([1]; Sphingomyelin Low (Dose 1, 10 nM)) was 94 and the “number of neurospheres, Average (Mean)” value ([1]; Sphingomyelin Med (Dose 2, 100 nM)) was 121. For the same substance, the “association of nutrient content of infant formula with myelination (myelin water fraction) over time in the brain” value [2] was “an association with myelination (myelin water fraction) was observed”, the “neuronal proliferation, DAPI” value ([3]; Sphingomyelin high (Dose 3, 1 μm)) was 305 and the “neuronal proliferation, DAPI” value ([3]; Sphingomyelin low (Dose 1, 10 nM)) was 280. For the same substance, the “neuronal proliferation, DAPI” value ([3]; Sphingomyelin med (Dose 2, 100 nM)) was 314.
